Measured values as given in publication PMC3614957 (PLoS ONE, 2013).

Experiments:
[1] = Membrane dipole potential assessed by di-8-ANEPPS, labeled lipid vesicles; type: physicochemical; settings: di-8-ANEPPS labeled LUV, control additions (data not shown)
Protocol: (§1) Human blood samples were obtained from healthy volunteers, with their previous written informed consent, at the Instituto Português do Sangue (Lisbon, Portugal). This study was approved by the ethics committee of the Faculdade de Medicina da Universidade de Lisboa. Isolation of erythrocytes and PBMC and labeling of these cells with di-8-ANEPPS (Invitrogen, Carlsbad, CA, USA) were performed as described before, [29]. […] They were incubated at 1% hematocrit in buffer supplemented with 0.05% (m/v) Pluronic F-127 (Sigma) and di-8-ANEPPS 10 µM. PBMC were isolated by density gradient using Ficoll-Paque Plus (GE Healthcare, Little Chalfont, UK) and counted in a Neubauer improved hemocytometer. They were incubated at 3000 cells/µL in Pluronic-supplemented buffer with 3.3 µM di-8-ANEPPS. Cells were incubated with the fluorescent probe during 1 h, with gentle agitation, and unbound probe was washed with Pluronic-free buffer on two centrifugation cycles. […] For lipid vesicles labeling, suspensions with […] of total lipid were incubated overnight with di-8-ANEPPS 10 µM, to ensure maximum incorporation of the probe. The maximum concentration of DMSO or DMSO:ethanol in the suspensions was 2.4% (v/v) at 6 µM of peptide or cholesterol. […] The variation of R with the peptide concentration was analyzed by a single binding site model: [drawing 5] […]

PBMC = experiment: Membrane dipole potential assessed by di-8-ANEPPS, PBMC; type: cell-based, human; settings: up to 6 µM
Protocol: as §1

human erythrocytes = experiment: Membrane dipole potential assessed by di-8-ANEPPS, erythrocytes; type: cell-based; settings: up to 6 µM
Protocol: as §1

[2] = parameters: method as in 2 sources, one per row (each row's own in cited_ref): ref 35 = [35]; PMID 14514352; doi:10.1042/BJ20031350; 35 Veiga S , Henriques S , Santos NC , Castanho MARB ( 2004 ) Putative role of membranes in the HIV fusion inhibitor enfuvirtide mode of action at the molecular level . Biochem J 377 : 107 – 110 . 145 ||| ref 8, 29 = [8]; PMID 18410103; doi:10.1021/ja711247n; 8 Franquelim HG , Loura LM , Santos NC , Castanho MARB ( 2008 ) Sifuvirtide screens rigid membrane surfaces. establishment of a correlation between efficacy and membrane domain selectivity among HIV f || [29]; PMID 21075080; doi:10.1016/j.bbrc.2010.11.013; 29 Matos PM , Freitas T , Castanho MARB , Santos NC ( 2010 ) The role of blood cell membrane lipids on the mode of action of HIV-1 fusion inhibitor sifuvirtide . Biochem Biophys Res Commun 403 : 270 –; settings: cited from earlier work

Compound | changes on the dipole potential [1] | effect on membrane dipole potential (PBMC) | effect on membrane dipole potential (human erythrocytes) | binding to POPC vesicles [2]
CC(C)CCC[C@@H](C)[C@H]1CC[C@H]2[C@@H]3CC=C4C[C@@H](O)CC[C@]4(C)[C@H]3CC[C@]12C [cholesterol] | no changes | not sufficient to induce a detectable membrane potential change | not sufficient to induce a detectable membrane potential change | –
sifuvirtide | – | – | – | residual binding
